Reference: publication PMC11190223, “Identification of sulfakinin receptor regulating feeding behavior and hemolymph trehalose homeostasis in the silkworm, Bombyx mori” (Scientific Reports, 2024)
Where no end group is shown, it is not given here. [ ]: non-standard residue; d: D form. sY = N[C@@H](Cc1ccc(OS(=O)(=O)O)cc1)C(=O)O

Columns and labels:
[1] = system: BNGR-A9; assay: IP3 ELISA in BNGR-A9-expressing HEK293 cells; assay type: cell-based, Bombyx mori; conditions: 1 μM, 1 h
Method: Figure 6 Bombyx sulfated-sulfakinin mediated activation of BNGR-A9 via Gαq signaling pathway. (A and B) Effects of Gαq inhibitor FR900359 (1 μM) on the CRE-driven luciferase activities in BNGR-A9 expressing HEK293 (A) and BmN (B) cells. BNGR-A9 stable transfected cells were pretreated with FR900359 (1 μM) for 30 min and challenged with 100 nM BmsSK for 4 h. (C) Accumulation of IP3 in HEK293 cells expressing BNGR-A9 in response to Bombyx neuropeptides was assessed. Cells were pre-treated with serum-free DMEM for 1 h, followed by stimulation with 1 μM of the indicated Bombyx neuropeptides for 1 h. The level of IP3 in the supernatant was then determined using the IP3 immunoassay detection kit. (D, E) Effects of Gαq/PLC inhibitors on Flag-BNGR-A9 mediated increase of intracellular Ca^2+ level. Flag-BNGR-A9 expressing HEK293 (D) and BmN (E) cells were pretreated with Gαq inhibitorFR900359 (1 μM), U73122 (5 μM) for 30 min, and incubated with Fura-2 AM for 30 min, followed by challenging with 100 nM BmsSK. (F, G) effects of protein kinase A (PKA) inhibitor KT5720 on BmsSK initiated Ca^2+ in Flag-BNGR-A9-expressing cells. […] After 30 min incubation with Fura-2 AM, the cells were treated with 100 nM BmsSK, and detected with a fluorescence spectrometer. […] Data were analyzed by using a Student’s t-test (*p < 0.05; **p < 0.01). […]

[2] = system: BNGR-A9; assay: Receptor internalization assay, BNGR-A9-EGFP; assay type: cell-based, Bombyx mori; conditions: BNGR-A9-EGFP stably expressing HEK293 cells; 100 nM, 30 min; fluorescence microscopy
Description: (§1) The entire coding region of BNGR-A9 (NM_001134272.1) was obtained by PCR and subsequently cloned into pEGFP-N1 and pCMV-Flag vectors using the primers listed in Table S1. The Flag-BNGR-A9 construct was generated for functional assays, including CRE-luciferase, calcium mobilization, and ERK phosphorylation assays, while BNGR-A9-EGFP was created for receptor visualization purposes. Additionally, for expression in the BmN cell system, the BNGR-A9 gene was inserted into the pIZT/V5-His vector. All constructs were validated by DNA sequencing.
BNGR-A9-EGFP stably expressing HEK293 cells were seeded onto coverslips and incubated overnight under normal growth conditions. Subsequently, the cells were starved with fresh serum-free DMEM for 1 h and treated with either 100 nM BmsSK or BmnsSK. After a 30-min incubation period, the cells were washed three times with ice-cold PBS and fixed with 3% paraformaldehyde for 10 min at room temperature. The images were taken by a fluorescence microscopy (Leica, Germany).

[3] = system: BNGR-A9; assay: Fura-2 AM-based Ca^2+ mobilization assay, BNGR-A9; assay type: cell-based, Bombyx mori
Description: as §1
HEK293 cells were cultured with Dulbecco’s Modified Eagle’s Medium (Gibco, NY, USA) supplied with 10% Fetal bovine serum (Gibco, NY, USA) in a 37 °C humidified incubator containing 5% CO2. BmN cells were maintained in TC 100 insect medium (AppliChem, Darmstadt, Germany) supplied with 10% Fetal bovine serum in a 28 °C incubator. Both HEK293 and BmN cells were transfected with X-tremeGENE (Roche, Mannheim, Germany) according to the manufacturer’s instruction.
To monitor the changes of intracellular calcium, Fura-2 AM (Dojindo, Kumamoto, Japan) was utilized as the calcium indicator, following the methodology outlined in a previous study. Briefly, HEK293 cells stably expressing Flag-BNGR-A9 were exposed to various concentrations of Bombyx mori neuropeptides and measured using a fluorescence spectrometer (Tecan Infinite 200 PRO). Calcium levels were determined by the ratio of fluorescence excitation at 340 nm to that at 380 nm. If necessary, cells were pre-treated with U73122, FR900359, or KT5720 for 30 min prior to the initiation of the experiment. For assays involving BmN cells expressing pIZT-BNGR-A9, the procedures were conducted at 28 °C, and HBSS was replaced with HBM (Hepes-Buffered Medium: 140 mM NaCl, 5 mM KCl, 1 mM MgCl2, 1.2 mM Na2HPO4, 5 mM NaHCO3, 10 mM glucose, and 20 mM HEPES–NaOH, CaCl2 (1 mM), pH 6.2).
Data analysis was conducted using GraphPad Prism (San Diego, CA), with results presented as mean ± SEM. Statistical significance was assessed through Student’s t-test or two-way ANOVA with multiple comparisons, with p values below 0.05 denoted as significant (*p < 0.05, **p < 0.01, ***p < 0.001). Dose–response curves were generated via non-linear curve fitting. Adobe Photoshop was used to process images, ensuring uniform brightness and contrast settings across all conditions. All images and data provided represent findings from a minimum of three independent experiments.

[4] = Feeding behavior assay: food consumption; assay type: in vivo, Bombyx mori; conditions: injected daily, final concentration 10 nM, 5th instar larvae; days 2 and 4 post-injection vs control (HBM)
Method: Double-stranded RNAs were synthesized using MEGAscript RNAi T7 Kit (Ambion, CA, USA) following the manufacturer’s instructions. Templates for in vitro transcription were generated by PCR using the primers containing the T7 polymerase promoter sequence at their 5′ ends, as listed in Table S1. For each 20-μl reaction, 1 μg PCR product was added as the template. Following transcription, the reaction mixture was purified by phenol/chloroform extraction and ethanol precipitation. The resulting dsRNA products were diluted with nuclease-free water to achieve the desired concentration (final volume of 2–5 μl).
Synchronized larvae of the first day of 5th instar were chosen for feeding behavior assay. Silkworms were starved for 12 h to standardize the starting level. To knock down bngr-a9, 5 μg dsRNA/BNGR-A9 or dsRNA/EGFP was injected into the abdomen of the larvae at the indicated time using a 10 μl microsyringe. For silkworms, both treated and untreated with dsRNA, synthetic SK peptide (at a final concentration of 10 nM) was injected daily starting from the second day of the fifth instar. For each trial, twenty synchronized P50 larvae were used. After injection, the silkworm larvae were fed with enough mulberry leaves three times a day and maintained under standard conditions. Larval body weights and food consumption were measured every other day until pupation.

BmsSK: Bombyx mori sulfated-sulfakinin, synthetic; sulfated version of GDDTFDD^8YGHLRF-NH2 (GDDTFDD[sY]GHLRF-NH2; N-terminus assumed; SMILES CC(C)C[C@H](NC(=O)[C@H](Cc1c[nH]cn1)NC(=O)CNC(=O)[C@H](Cc1ccc(OS(=O)(=O)O)cc1)NC(=O)[C@H](CC(=O)O)NC(=O)[C@H](CC(=O)O)NC(=O)[C@H](Cc1ccccc1)NC(=O)[C@@H](NC(=O)[C@H](CC(=O)O)NC(=O)[C@H](CC(=O)O)NC(=O)CN)[C@@H](C)O)C(=O)N[C@@H](CCCNC(=N)N)C(=O)N[C@@H](Cc1ccccc1)C(N)=O)
Intracellular IP3 level [1]: significant elevation
Receptor internalization [2]: rapid and significant receptor redistribution within the cytoplasm
Ca^2+ response ([3]; 1 μM peptide, Fura-2 AM, BNGR-A9-expressing HEK293 and BmN cells, three independent experiments): triggered responses in BNGR-A9-expressing cells
Ca^2+ response compared to BmnsSK ([3]; BNGR-A9-expressing HEK293 and BmN cells, Fura-2 AM): significantly greater Ca^2+ response
EC50 ([3]; BmN cells expressing BNGR-A9, Fura-2 AM, 28 °C, HBM pH 6.2, three independent experiments): 51.4 nM
EC50 ([3]; HEK293 cells expressing BNGR-A9, Fura-2 AM, three independent experiments): 29 nM
Food consumption [4]: notably declined
